Data published in paper PMC6386942, “Bisoprolol, Known to Be a Selective β1-Receptor Antagonist, Differentially but Directly Suppresses IK(M) and IK(erg) in Pituitary Cells and Hippocampal Neurons” (International Journal of Molecular Sciences, 2019).

Tests used:
[1] = target: T1, erg-mediated K+ channel (Kerg, KV11) (Rattus norvegicus, UniProt O08962); assay: whole-cell patch clamp of native IK(erg) in GH3 cells; format: cell-based
T1 construct: gene Kcnh2; native channel in pituitary GH3 cells
T1 sequence (O08962 1-1163): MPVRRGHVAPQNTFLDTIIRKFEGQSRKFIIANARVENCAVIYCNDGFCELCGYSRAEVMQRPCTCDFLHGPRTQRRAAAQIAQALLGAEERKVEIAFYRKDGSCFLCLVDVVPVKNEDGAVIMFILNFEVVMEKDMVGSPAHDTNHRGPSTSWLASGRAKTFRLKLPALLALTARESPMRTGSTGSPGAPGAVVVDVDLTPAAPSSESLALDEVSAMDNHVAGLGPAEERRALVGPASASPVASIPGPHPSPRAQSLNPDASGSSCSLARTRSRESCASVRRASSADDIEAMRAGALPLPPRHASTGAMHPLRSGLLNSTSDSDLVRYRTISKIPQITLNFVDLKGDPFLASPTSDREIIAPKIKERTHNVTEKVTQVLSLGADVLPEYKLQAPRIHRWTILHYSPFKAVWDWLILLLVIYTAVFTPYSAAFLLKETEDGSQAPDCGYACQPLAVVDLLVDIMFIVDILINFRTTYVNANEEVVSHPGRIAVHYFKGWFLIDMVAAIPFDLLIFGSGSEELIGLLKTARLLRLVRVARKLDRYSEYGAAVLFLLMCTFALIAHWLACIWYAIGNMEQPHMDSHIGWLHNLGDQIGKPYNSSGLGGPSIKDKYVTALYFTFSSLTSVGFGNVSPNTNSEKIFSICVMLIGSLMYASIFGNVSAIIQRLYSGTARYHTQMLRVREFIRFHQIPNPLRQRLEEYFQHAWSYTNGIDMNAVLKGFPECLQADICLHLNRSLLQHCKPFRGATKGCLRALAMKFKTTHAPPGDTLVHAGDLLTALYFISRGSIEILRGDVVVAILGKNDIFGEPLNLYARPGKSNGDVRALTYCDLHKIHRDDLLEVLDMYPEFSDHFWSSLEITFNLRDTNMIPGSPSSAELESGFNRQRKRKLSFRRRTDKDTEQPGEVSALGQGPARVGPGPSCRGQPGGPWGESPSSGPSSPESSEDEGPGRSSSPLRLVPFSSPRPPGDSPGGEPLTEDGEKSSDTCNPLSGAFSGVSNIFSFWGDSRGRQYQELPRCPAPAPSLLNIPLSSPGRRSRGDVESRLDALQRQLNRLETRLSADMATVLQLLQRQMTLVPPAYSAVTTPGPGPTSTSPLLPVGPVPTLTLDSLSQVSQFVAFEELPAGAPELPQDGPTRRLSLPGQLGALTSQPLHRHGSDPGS

[2] = target: T2, M-type K+ (KM) channel, KCNQ2 (KV7.2)/KCNQ3 (KV7.3) (Rattus norvegicus, UniProt O88943+O88944); assay: whole-cell patch clamp of native IK(M), plus cell-attached single KM channel recordings in GH3 cells; format: cell-based
T2 construct: native channel in pituitary GH3 cells; with KCNQ3 (KV7.3)
T2 sequence (O88943 whole entry): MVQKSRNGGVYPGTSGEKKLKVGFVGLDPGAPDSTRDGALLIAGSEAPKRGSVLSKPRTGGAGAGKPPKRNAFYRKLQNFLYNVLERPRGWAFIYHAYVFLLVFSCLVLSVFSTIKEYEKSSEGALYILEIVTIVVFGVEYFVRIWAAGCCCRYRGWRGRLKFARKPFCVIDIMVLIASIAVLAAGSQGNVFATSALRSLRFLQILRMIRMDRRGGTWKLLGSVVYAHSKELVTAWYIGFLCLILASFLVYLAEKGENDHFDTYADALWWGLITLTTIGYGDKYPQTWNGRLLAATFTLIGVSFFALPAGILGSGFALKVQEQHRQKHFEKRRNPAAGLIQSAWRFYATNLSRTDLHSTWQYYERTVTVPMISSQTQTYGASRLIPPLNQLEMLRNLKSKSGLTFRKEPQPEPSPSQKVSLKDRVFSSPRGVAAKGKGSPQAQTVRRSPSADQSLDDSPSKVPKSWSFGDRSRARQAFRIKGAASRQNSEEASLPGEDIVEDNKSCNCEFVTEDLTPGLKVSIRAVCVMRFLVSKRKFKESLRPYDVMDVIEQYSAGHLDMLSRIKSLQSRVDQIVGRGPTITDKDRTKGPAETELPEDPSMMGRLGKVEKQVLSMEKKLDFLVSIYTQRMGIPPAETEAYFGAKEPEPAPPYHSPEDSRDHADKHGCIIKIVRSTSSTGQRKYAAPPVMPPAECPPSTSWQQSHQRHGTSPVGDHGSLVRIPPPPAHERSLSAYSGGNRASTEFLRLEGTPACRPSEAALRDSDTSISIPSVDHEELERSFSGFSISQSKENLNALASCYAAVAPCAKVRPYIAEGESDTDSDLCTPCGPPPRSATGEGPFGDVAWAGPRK
T2 sequence (O88944 whole entry): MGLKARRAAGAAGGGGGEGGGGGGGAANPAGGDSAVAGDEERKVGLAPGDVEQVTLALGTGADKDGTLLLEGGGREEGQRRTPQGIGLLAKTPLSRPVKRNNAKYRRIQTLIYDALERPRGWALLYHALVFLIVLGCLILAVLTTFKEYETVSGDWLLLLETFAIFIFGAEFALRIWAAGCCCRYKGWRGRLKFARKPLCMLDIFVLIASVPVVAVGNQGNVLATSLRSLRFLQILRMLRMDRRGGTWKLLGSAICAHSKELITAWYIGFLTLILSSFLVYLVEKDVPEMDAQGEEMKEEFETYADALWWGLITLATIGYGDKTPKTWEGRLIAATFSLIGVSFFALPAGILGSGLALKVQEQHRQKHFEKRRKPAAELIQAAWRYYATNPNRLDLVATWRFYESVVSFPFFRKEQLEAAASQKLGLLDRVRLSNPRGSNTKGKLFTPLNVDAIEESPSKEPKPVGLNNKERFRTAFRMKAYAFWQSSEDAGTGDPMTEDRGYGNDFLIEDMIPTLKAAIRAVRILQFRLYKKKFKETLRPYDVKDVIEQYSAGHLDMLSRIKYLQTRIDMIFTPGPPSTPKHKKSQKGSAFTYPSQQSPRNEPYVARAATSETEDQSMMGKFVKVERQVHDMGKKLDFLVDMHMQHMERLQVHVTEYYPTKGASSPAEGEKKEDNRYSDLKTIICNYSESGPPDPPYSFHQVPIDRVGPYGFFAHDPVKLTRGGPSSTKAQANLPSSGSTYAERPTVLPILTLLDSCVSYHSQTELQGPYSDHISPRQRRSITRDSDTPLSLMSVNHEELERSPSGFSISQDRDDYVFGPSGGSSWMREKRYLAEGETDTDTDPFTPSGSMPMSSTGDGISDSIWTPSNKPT

SMILES: CC(C)NCC(O)COc1ccc(COCCOC(C)C)cc1 (racemic) [BIS, 1-(propan-2-ylamino)-3-[4-(2-propan-2-yloxyethoxymethyl)phenoxy]propan-2-ol]
- IC50 [1]: 6.42 µM
- IC50 [2]: 1.21 µM
